The structures appear in SMILES notation.

human adenosine A2b receptor, sequence (P29275 whole entry): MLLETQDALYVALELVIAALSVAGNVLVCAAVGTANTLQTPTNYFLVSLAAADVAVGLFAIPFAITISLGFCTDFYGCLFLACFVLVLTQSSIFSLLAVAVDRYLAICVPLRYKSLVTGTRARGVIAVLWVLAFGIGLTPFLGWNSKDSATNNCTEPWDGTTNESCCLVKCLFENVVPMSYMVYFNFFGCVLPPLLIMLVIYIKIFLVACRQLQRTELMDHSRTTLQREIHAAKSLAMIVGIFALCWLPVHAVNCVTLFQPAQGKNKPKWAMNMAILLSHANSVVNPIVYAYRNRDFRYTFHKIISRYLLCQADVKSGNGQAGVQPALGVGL

This experiment has as its target human adenosine A2b receptor (Homo sapiens (Human), UniProt P29275). Kind of experiment: Cellular in vitro reporter gene test for A2b receptor activity (CHO-K1, CRE-luciferase, NECA stimulation). The experiment is classed as cell-based. The settings on record: recombinant CHO-K1 cell line, CRE-luciferase reporter, antagonism of EC50 concentration of NECA; in some cases means of several determinations, rounded to two significant figures; read-out: A2b receptor IC50. Put shortly: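 CHO-K1 cells with CRE-driven luciferase; antagonists co-incubated with NECA at its EC50, determined in a pre-experiment on each test day. Luciferase read by luminescence 3 h after NECA addition.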
The term IC50 denotes the point on the concentration scale where inhibition reaches its midpoint. `Cc1c(CN2CCNC2=NC#N)sc2c1c(=O)n(CC(F)(F)F)c(=O)n2CC1CCCO1` (single isomer, unassigned) [Example 361, [1-{[5-Methyl-2,4-dioxo-1-(tetrahydrofuran-2-ylmethyl)-3-(2,2,2-trifluoroethyl)-1,2,3,4-tetrahydrothieno[2,3-d]pyrimidin-6-yl]methyl}imidazolidin-2-ylidene]cyanamide]: the IC50 was found to be 13 nM.

For the compound `CCn1c(=O)c2c(C)c(CN3CCOC3=O)sc2n(CCC(F)(F)F)c1=O` [Example 21, 3-Ethyl-5-methyl-6-[(2-oxo-1,3-oxazolidin-3-yl)methyl]-1-(3,3,3-trifluoropropyl)thieno[2,3-d]pyrimidine-2,4(1H,3H)-dione], the IC50 amounted to 5.1 nM. The same measure for `Cc1c(CN2CCNC2=O)sc2c1c(=O)n(C(C)C)c(=O)n2CC1CCO1` (single isomer, unassigned) [Example 184, 3-Isopropyl-5-methyl-1-(oxetan-2-ylmethyl)-6-[(2-oxoimidazolidin-1-yl)methyl]thieno[2,3-d]pyrimidine-2,4(1H,3H)-dione]: 7 nM; for `Cc1c(CN2CCNC2=NC#N)sc2c1c(=O)n(CC(C)(C)C)c(=O)n2CCC(F)(F)F` [Example 443, [1-{[3-(2,2-Dimethylpropyl)-5-methyl-2,4-dioxo-1-(3,3,3-trifluoropropyl)-1,2,3,4-tetrahydrothieno[2,3-d]pyrimidin-6-yl]methyl}imidazolidin-2-ylidene]cyanamide]: 7.4 nM.

As to `CCOCCn1c(=O)n(CC(F)F)c(=O)c2c(C)c(CN3CCNC3=O)sc21` [Example 215, 3-(2,2-Difluoroethyl)-1-(2-ethoxyethyl)-5-methyl-6-[(2-oxoimidazolidin-1-yl)methyl]thieno[2,3-d]pyrimidine-2,4(1H,3H)-dione], the half-maximal inhibitory concentration (IC50) turned out to be 45 nM.

In the case of `Cc1c(CN2CCNC2=S)sc2c1c(=O)n(CC(C)(C)C)c(=O)n2CCCF` [Example 150, 3-(2,2-Dimethylpropyl)-1-(3-fluoropropyl)-5-methyl-6-[(2-thioxoimidazolidin-1-yl)methyl]thieno[2,3-d]pyrimidine-2,4(1H,3H)-dione], the IC50 is 6 nM.

For the compound `CCn1c(=O)c2c(C)c(Cn3nc[nH]c3=O)sc2n(CC2CCCO2)c1=O` (single isomer, unassigned) [Example 421, 3-Ethyl-5-methyl-6-[(5-oxo-4,5-dihydro-1H-1,2,4-triazol-1-yl)methyl]-1-(tetrahydrofuran-2-ylmethyl)thieno[2,3-d]pyrimidine-2,4(1H,3H)-dione], the IC50 turned out to be 71 nM. The same measure for `CCn1c(=O)c2c(C)c(CN3CCNC3=O)sc2n(CCF)c1=O` [Example 50, 3-Ethyl-1-(2-fluoroethyl)-5-methyl-6-[(2-oxoimidazolidin-1-yl)methyl]thieno[2,3-d]pyrimidine-2,4(1H,3H)-dione]: 4.6 nM; for `CCOCCn1c(=O)c2c(C)c(CN3CCNC3=S)sc2n(CCCF)c1=O` [Example 405, 3-(2-Ethoxyethyl)-1-(3-fluoropropyl)-5-methyl-6-[(2-thioxoimidazolidin-1-yl)methyl]thieno[2,3-d]pyrimidine-2,4(1H,3H)-dione]: 30 nM. In the case of `COC(=O)N=C1NCCN1Cc1sc2c(c1C)c(=O)n(CC(C)(C)C)c(=O)n2CC1CCCO1` (single isomer, unassigned) [Example 465, Methyl [1-{[3-(2,2-dimethylpropyl)-5-methyl-2,4-dioxo-1-(tetrahydrofuran-2-ylmethyl)-1,2,3,4-tetrahydrothieno[2,3-d]pyrimidin-6-yl]methyl}imidazolidin-2-ylidene]carbamate] it was 13 nM. In the case of `COCCn1c(=O)n(C(C)C(F)(F)F)c(=O)c2c(C)c(CN3CCNC3=O)sc21` (racemic) [Example 410, 1-(2-Methoxyethyl)-5-methyl-6-[(2-oxoimidazolidin-1-yl)methyl]-3-(1,1,1-trifluoropropan-2-yl)thieno[2,3-d]pyrimidine-2,4(1H,3H)-dione] it was 12 nM.

As to `COCCn1c(=O)c2c(C)c(Cn3[nH]ccc3=O)sc2n(CCC(F)(F)F)c1=O` [Example 287, 3-(2-Methoxyethyl)-5-methyl-6-[(5-oxo-2,5-dihydro-1H-pyrazol-1-yl)methyl]-1-(3,3,3-trifluoropropyl)thieno[2,3-d]pyrimidine-2,4(1H,3H)-dione], the IC50 was found to be 63 nM. The same measure for `CCn1c(=O)c2c(C)c(CN3CCCS3(=O)=O)sc2n(CCOC)c1=O` [Example 17, 6-[(1,1-Dioxido-1,2-thiazolidin-2-yl)methyl]-3-ethyl-1-(2-methoxyethyl)-5-methylthieno[2,3-d]pyrimidine-2,4(1H,3H)-dione]: 16 nM; for `Cc1c(CN2CCNC2=O)sc2c1c(=O)n(CC(F)(F)F)c(=O)n2CC1CCO1` (single isomer, unassigned) [Example 207, 5-Methyl-1-(oxetan-2-ylmethyl)-6-[(2-oxoimidazolidin-1-yl)methyl]-3-(2,2,2-trifluoroethyl)thieno[2,3-d]pyrimidine-2,4(1H,3H)-dione]: 43 nM. In the case of `CCOCCn1c(=O)c2c(C)c(CN3CCNC3=O)sc2n(CCOC)c1=O` [Example 327, 3-(2-Ethoxyethyl)-1-(2-methoxyethyl)-5-methyl-6-[(2-oxoimidazolidin-1-yl)methyl]thieno[2,3-d]pyrimidine-2,4(1H,3H)-dione] it was 40 nM; in that of `Cc1c(CN2CCNC2=O)sc2c1c(=O)n(C(C)C)c(=O)n2CF` [Example 313, 1-(Fluoromethyl)-3-isopropyl-5-methyl-6-[(2-oxoimidazolidin-1-yl)methyl]thieno[2,3-d]pyrimidine-2,4(1H,3H)-dione], 41 nM.

Regarding `CCn1c(=O)c2c(C)c(CN3CCNC3=O)sc2n(CCSC(F)(F)F)c1=O` [Example 58, 3-Ethyl-5-methyl-6-[(2-oxoimidazolidin-1-yl)methyl]-1-{2-[(trifluoromethyl)sulphanyl]ethyl}thieno[2,3-d]pyrimidine-2,4(1H,3H)-dione], the concentration for half-maximal inhibition (IC50) worked out at 2.6 nM.

Turning to `COC(C)Cn1c(=O)c2c(C)c(Cn3nc[nH]c3=O)sc2n(CCC(F)(F)F)c1=O` (single isomer, unassigned) [Example 442, 3-(2-Methoxypropyl)-5-methyl-6-[(5-oxo-4,5-dihydro-1H-1,2,4-triazol-1-yl)methyl]-1-(3,3,3-trifluoropropyl)thieno[2,3-d]pyrimidine-2,4(1H,3H)-dione], the IC50 is 60 nM. With `Cc1c(Cn2nc[nH]c2=O)sc2c1c(=O)n(CC(C)(C)C)c(=O)n2CC1CCCO1` (single isomer, unassigned) [Example 430, 3-(2,2-Dimethylpropyl)-5-methyl-6-[(5-oxo-4,5-dihydro-1H-1,2,4-triazol-1-yl)methyl]-1-(tetrahydrofuran-2-ylmethyl)thieno[2,3-d]pyrimidine-2,4(1H,3H)-dione], the IC50 stood at 280 nM. In the case of `CCOCCn1c(=O)n(CC(F)F)c(=O)c2c(C)c(CN3CCNC3=S)sc21` [Example 161, 3-(2,2-Difluoroethyl)-1-(2-ethoxyethyl)-5-methyl-6-[(2-thioxoimidazolidin-1-yl)methyl]thieno[2,3-d]pyrimidine-2,4(1H,3H)-dione] it was 8.5 nM. The same measure for `COCCn1c(=O)n(CCC=C(F)F)c(=O)c2c(C)c(CN3CCNC3=O)sc21` [Example 322, 3-(4,4-Difluorobut-3-en-1-yl)-1-(2-methoxyethyl)-5-methyl-6-[(2-oxoimidazolidin-1-yl)methyl]thieno[2,3-d]pyrimidine-2,4(1H,3H)-dione]: 1.3 nM.

On to `Cc1c(Cn2cc[nH]c2=O)sc2c1c(=O)n(C(C)C)c(=O)n2CC1CCCO1` (racemic) [Example 247, 3-Isopropyl-5-methyl-6-[(2-oxo-2,3-dihydro-1H-imidazol-1-yl)methyl]-1-(tetrahydrofuran-2-ylmethyl)thieno[2,3-d]pyrimidine-2,4(1H,3H)-dione], for which the IC50 was 8.9 nM.

Turning to `CCn1c(=O)c2c(C)c(CN3CCNC(=O)C3=O)sc2n(CCOC)c1=O` [Example 120, 6-[(2,3-Dioxopiperazin-1-yl)methyl]-3-ethyl-1-(2-methoxyethyl)-5-methylthieno[2,3-d]pyrimidine-2,4(1H,3H)-dione], the IC50 is 12 nM.

On to `CCn1c(=O)c2c(C)c(CN3CCC(C)C3=O)sc2n(CCC(F)(F)F)c1=O` (racemic) [Example 6, 3-Ethyl-5-methyl-6-[(3-methyl-2-oxopyrrolidin-1-yl)methyl]-1-(3,3,3-trifluoropropyl)thieno[2,3-d]pyrimidine-2,4(1H,3H)-dione (racemate)], for which the IC50 is 8 nM. In the case of `Cc1c(CN2CCNC2=S)sc2c1c(=O)n(CC(F)F)c(=O)n2C` [Example 166, 3-(2,2-Difluoroethyl)-1,5-dimethyl-6-[(2-thioxoimidazolidin-1-yl)methyl]thieno[2,3-d]pyrimidine-2,4(1H,3H)-dione] it was 13 nM; in that of `CCn1c(=O)c2c(C)c(CN3CC(C)NC3=S)sc2n(CCOC)c1=O` (racemic) [Example 303, 3-Ethyl-1-(2-methoxyethyl)-5-methyl-6-[(4-methyl-2-thioxoimidazolidin-1-yl)methyl]thieno[2,3-d]pyrimidine-2,4(1H,3H)-dione], 46 nM; in that of `Cc1c(CN2CCNC2=NC#N)sc2c1c(=O)n(CC(F)(F)F)c(=O)n2CC1CCCO1` (single isomer, unassigned) [Example 360, [1-{[5-Methyl-2,4-dioxo-1-(tetrahydrofuran-2-ylmethyl)-3-(2,2,2-trifluoroethyl)-1,2,3,4-tetrahydrothieno[2,3-d]pyrimidin-6-yl]methyl}imidazolidin-2-ylidene]cyanamide], 10 nM.

For `[2H]C([2H])(c1sc2c(c1C)c(=O)n(CC)c(=O)n2CCOC)N1CCNC1=O` [Example 415, 3-Ethyl-1-(2-methoxyethyl)-5-methyl-6-[(2-oxoimidazolidin-1-yl)(dideutero)methyl]thieno[2,3-d]pyrimidine-2,4(1H,3H)-dione], the IC50 amounted to 9 nM.
